Laboratory results taken from ChEMBL document CHEMBL1275440, “In vitro activity of telavancin against resistant gram-positive bacteria” (2008).
Calls of active or inactive are those of the source.

Assays:
Assay type in all cases: functional
[1] = system: Streptococcus pneumoniae; test: Antibacterial activity against penicillin resistant Streptococcus pneumoniae clinical isolate by broth microdilution method
[2] = system: Streptococcus viridans; test: Antibacterial activity against Streptococcus viridans clinical isolate by broth microdilution method
[3] = system: Streptococcus pneumoniae; test: Antibacterial activity against penicillin intermediate Streptococcus pneumoniae clinical isolate assessed as susceptibility level by broth microdilution method
[4] = system: Streptococcus intermedius; test: Antibacterial activity against Streptococcus intermedius clinical isolate assessed as susceptibility level by broth microdilution method
[5] = system: Staphylococcus aureus; test: Antibacterial activity against methicillin resistant Staphylococcus aureus clinical isolate assessed as susceptibility level by broth microdilution method
[6] = system: Streptococcus constellatus; test: Antibacterial activity against Streptococcus constellatus clinical isolate by broth microdilution method
[7] = Antibacterial activity against methicillin resistant coagulase-negative Staphylococcus hominis subsp. novobiosepticus clinical isolate assessed as susceptibility level by broth microdilution method
[8] = system: Streptococcus pneumoniae; test: Antibacterial activity against penicillin intermediate Streptococcus pneumoniae clinical isolate by broth microdilution method
[9] = system: Staphylococcus capitis; test: Antibacterial activity against methicillin resistant coagulase-negative Staphylococcus capitis clinical isolate by broth microdilution method
[10] = system: Streptococcus mitis; test: Antibacterial activity against Streptococcus mitis clinical isolate by broth microdilution method
[11] = system: Streptococcus agalactiae; test: Antibacterial activity against Streptococcus agalactiae group B clinical isolate by broth microdilution method
[12] = system: Streptococcus pneumoniae; test: Antibacterial activity against multidrug-resistant Streptococcus pneumoniae clinical isolate by broth microdilution method
[13] = system: Staphylococcus haemolyticus; test: Antibacterial activity against methicillin resistant coagulase-negative Staphylococcus haemolyticus clinical isolate by broth microdilution method
[14] = system: Streptococcus pyogenes; test: Antibacterial activity against Streptococcus pyogenes group A clinical isolate assessed as susceptibility level by broth microdilution method
[15] = system: Streptococcus agalactiae; test: Antibacterial activity against Streptococcus agalactiae group B clinical isolate assessed as susceptibility level by broth microdilution method
[16] = system: Streptococcus pyogenes; test: Antibacterial activity against Streptococcus pyogenes group A clinical isolate by broth microdilution method
[17] = system: Staphylococcus auricularis; test: Antibacterial activity against methicillin resistant coagulase-negative Staphylococcus auricularis clinical isolate by broth microdilution method
[18] = system: Staphylococcus saprophyticus; test: Antibacterial activity against methicillin resistant coagulase-negative Staphylococcus saprophyticus clinical isolate assessed as susceptibility level by broth microdilution method
[19] = system: Streptococcus mitis; test: Antibacterial activity against Streptococcus mitis clinical isolate assessed as susceptibility level by broth microdilution method
[20] = system: Streptococcus oralis; test: Antibacterial activity against Streptococcus oralis clinical isolate assessed as susceptibility level by broth microdilution method
[21] = Antibacterial activity against methicillin resistant coagulase-negative Staphylococcus hominis subsp. novobiosepticus clinical isolate by broth microdilution method
[22] = system: Staphylococcus auricularis; test: Antibacterial activity against methicillin resistant coagulase-negative Staphylococcus auricularis clinical isolate assessed as susceptibility level by broth microdilution method
[23] = system: Staphylococcus epidermidis; test: Antibacterial activity against methicillin resistant Staphylococcus epidermidis clinical isolate by broth microdilution method
[24] = system: Streptococcus intermedius; test: Antibacterial activity against Streptococcus intermedius clinical isolate by broth microdilution method
[25] = system: Streptococcus constellatus; test: Antibacterial activity against Streptococcus constellatus clinical isolate assessed as susceptibility level by broth microdilution method
[26] = system: Staphylococcus epidermidis; test: Antibacterial activity against methicillin resistant Staphylococcus epidermidis clinical isolate assessed as susceptibility level by broth microdilution method
[27] = system: Streptococcus oralis; test: Antibacterial activity against Streptococcus oralis clinical isolate by broth microdilution method
[28] = system: Staphylococcus saprophyticus; test: Antibacterial activity against methicillin resistant coagulase-negative Staphylococcus saprophyticus clinical isolate by broth microdilution method
[29] = system: Staphylococcus aureus; test: Antibacterial activity against methicillin resistant Staphylococcus aureus clinical isolate by broth microdilution method; conditions: for MIC50 / MIC90: Staphylococcus aureus
[30] = system: Streptococcus pneumoniae; test: Antibacterial activity against multidrug-resistant Streptococcus pneumoniae clinical isolate assessed as susceptibility level by broth microdilution method
[31] = system: Staphylococcus haemolyticus; test: Antibacterial activity against methicillin resistant coagulase-negative Staphylococcus haemolyticus clinical isolate assessed as susceptibility level by broth microdilution method
[32] = system: Staphylococcus capitis; test: Antibacterial activity against methicillin resistant coagulase-negative Staphylococcus capitis clinical isolate assessed as susceptibility level by broth microdilution method
[33] = system: Streptococcus viridans; test: Antibacterial activity against Streptococcus viridans clinical isolate assessed as susceptibility level by broth microdilution method
[34] = system: Streptococcus pneumoniae; test: Antibacterial activity against penicillin resistant Streptococcus pneumoniae clinical isolate assessed as susceptibility level by broth microdilution method

CC[C@H]1OC(=O)[C@H](C)[C@@H](O[C@H]2C[C@@](C)(OC)[C@@H](O)[C@H](C)O2)[C@H](C)[C@@H](O[C@@H]2O[C@H](C)C[C@H](N(C)C)[C@H]2O)[C@](C)(O)C[C@@H](C)C(=O)[C@H](C)[C@@H](O)[C@]1(C)O [ERYTHROMYCIN]
15%: Activity [26]
20%: Activity [34]
> 1 µg/mL: MIC50 [8] | MIC90 [8] | MIC90 [11] | MIC90 [16]
> 16 µg/mL: MIC50 [9] | MIC90 [9] | MIC50 [13] | MIC90 [13] | MIC50 [17] | MIC90 [17] | MIC50 [21] | MIC90 [21] | MIC50 [23] | MIC90 [23] | MIC50 [28] | MIC90 [28] | MIC50 [29] | MIC90 [29]
89%: Activity [14]
62%: Activity [15]
inactive: MIC50 [2] | MIC90 [2] | MIC50 [6] | MIC90 [6] | MIC50 [10] | MIC90 [10] | MIC50 [24] | MIC90 [24] | MIC50 [27] | MIC90 [27]
63%: Activity [4] | Activity [19] | Activity [20] | Activity [25] | Activity [33]
13%: Activity [30]
0.03 µg/mL: MIC [1] | MIC [12] | MIC50 [16]
≤ 15 ng/mL: MIC [2] | MIC [6] | MIC [10] | MIC [24] | MIC [27]
18%: Activity [7] | Activity [18] | Activity [22] | Activity [31] | Activity [32]
0.06 µg/mL: MIC50 [11]
42%: Activity [3]
2%: Activity [5] | Activity [29]

CC[C@H]1OC(=O)[C@H](C)C(=O)[C@H](C)[C@@H](O[C@@H]2O[C@H](C)C[C@H](N(C)C)[C@H]2O)[C@](C)(OC)C[C@@H](C)C(=O)[C@H](C)[C@H]2N(CCCCn3cnc(-c4cccnc4)c3)C(=O)O[C@]12C [TELITHROMYCIN]
83%: Activity [5] | Activity [29]
0.015 µg/mL: MIC50 [11] | MIC50 [16] | MIC90 [16]
100%: Activity [3]
0.06 µg/mL: MIC50 [1] | MIC50 [12]
0.25 µg/mL: MIC90 [11] | MIC50 [29]
4 ng/mL: MIC [2] | MIC [6] | MIC [10] | MIC [24] | MIC [27]
> 8 µg/mL: MIC50 [9] | MIC90 [9] | MIC50 [13] | MIC90 [13] | MIC50 [17] | MIC90 [17] | MIC50 [21] | MIC90 [21] | MIC90 [23] | MIC50 [28] | MIC90 [28]
29%: Activity [7] | Activity [18] | Activity [22] | Activity [31] | Activity [32]
0.5 µg/mL: MIC90 [1] | MIC90 [12] | MIC50 [23]
16 µg/mL: MIC90 [29]
inactive: MIC50 [2] | MIC90 [2] | MIC50 [6] | MIC90 [6] | MIC50 [10] | MIC90 [10] | MIC50 [24] | MIC90 [24] | MIC50 [27] | MIC90 [27]
0.03 µg/mL: MIC50 [8]
43%: Activity [26]
0.12 µg/mL: MIC90 [8]
